Assay results: patent EP0052492A1, “3-Aryloxy-3-phenylpropylamines” (ELI LILLY AND COMPANY, priority 1980, dated 1982)
Like-named read-outs stand apart in the source and are kept apart here.

What was measured:
[1] = system: uptake of [3H]-norepinephrine, hypothalamus; test: Inhibition of norepinephrine uptake in hypothalamus homogenate after dosing live rats; type: in vivo, male Sprague-Dawley rats; settings: for ED50 / inhibition at 10 mg/kg: Rattus norvegicus; for ED50: ip, read-out: ED50 value
Description: The test animals were male Sprague-Dawley rats weighing 110-150 g., which were treated in groups of 5 with the test compound at the doses and times specified, and were killed by decapitation. The hypothalamus was removed from each brain, and homogenized in a medium as described in the in vitro test above. Aliquots of the homogenate containing 1 mg. of protein were used; the incubation times, medium and temperature were as described in the test above.
The data were expressed another way by plotting the blood level of the compound against the rate of [^3H]norepinephrine uptake.

[2] = target: strips of fresh guinea pig trachea, acetylcholine as the agonist; test: Anticholinergic activity in guinea pig tracheal strips, acetylcholine as agonist (Schild plot); type: cell-based; settings: for negative logarithm of the dissociation constant: acetylcholine as agonist, guinea pig trachea
Description: The test was carried out on 2mm. x 30mm. strips of fresh guinea pig trachea. The strips were suspended in 10 ml. organ baths containing physiological salt solution at 37.5°, and aerated with a mixture of 5% carbon dioxide and 95% oxygen. The tracheal strips were attached to isometric transducers connected to an automatic recorder, and were allowed to equilibrate under a tension of 2 g. for at least 2 hours before addition of drug. Dose-response curves were obtained by adding increasing concentrations of drug to the bath, in approximately 3-fold increments. […] Consecutive dose-response curves on a given tissue were always separated by 1 hour of washing with fresh physiological salt solution to assure maximum washout of drug.
Dissociation constants were determined using acetylcholine as the agonist. In this method, the ratio of concentrations of acetylcholine giving equal responses in the presence and in the absence of the compound of this invention was determined at various concentrations of the compound. […] The method of calculation is clearly discussed by Arunlakshana and Schild, Some Quantitative Uses of Drug Antagonists, Brit. J. Pharmacol. 14 48-58 (1959).

[3] = system: canine cardiac conducting tissue, sometimes called Purkinje fibers; settings: dog
Text: Another test applied to the compound was one designed to detect electrophysiological effects in canine cardiac conducting tissue, sometimes called Purkinje fibers.

[4] = system: dopamine uptake, synaptosomes isolated from the corpus striatum; test: In vitro uptake of [3H]dopamine by corpus striatum synaptosomes; type: biochemical, male Sprague-Dawley rats
Description: (§1) Monoamine uptake inhibition was measured by the in vitro method of Wong and Bymaster, cited above. In this method, male Sprague-Dawley rats weighing 110-150 g. were killed by decapitation, and the whole brains were removed and dissected. Crude preparations of synaptosomes were prepared from 10% homogenates of specific areas of the brain in 0.32M sucrose and lOmM glucose by differential centrifugation, according to the method of Gray and Whittaker, J. Anat. 96, 79 (1962).
(§2) Uptake of [^3H]monoamines by synaptosomes was determined as follows. A portion of a synaptosome preparation equivalent to 1 mg. of protein was incubated at 37°. for 5 minutes in 1 or 3 ml. of Krebs bicarbonate medium containing an additional 10mM of glucose, 0.1mM iproniazid, ImM ascorbic acid, 0.17mM ethylenediaminetetraacetic acid and [3H]monoamine at a specified concentration. […] Radioactivity was measured with a liquid scintillation spectrometer, and the amount of [^3H]- monoamine accumulated by the synaptosomes at 4° represented the background count and was subtracted from the results obtained on all samples.
(§3) The effect of the compound of this invention on the uptake of [^3H]serotonin and [^3H]dopamine was also determined, by the same test method, using synaptosomes isolated from the corpus striatum for the determination of dopamine uptake and synaptosomes of cerebral cortex for serotonin uptake.

[5] = system: uptake of norepinephrine by synaptosomes of the hypothalamus after 6-hydroxydopamine; test: Protection against 6-hydroxydopamine-induced loss of norepinephrine uptake; type: in vivo, male Sprague-Dawley rat; settings: Rattus norvegicus, ip; for ED50: antagonism of 6-hydroxydopamine, intraperitoneally
Text: The neurotoxic agent 6-hydroxydopamine has the property of destroying norepinephrinergic terminals of the central and peripheral nervous systems.

[6] = system: reduction in body temperature caused by apomorphine; test: Apomorphine hypothermia antagonism test; type: in vivo, Mice; settings: for dose giving 50% antagonism of the hypothermia: compound intraperitoneally 30 minutes before apomorphine, temperature 30 minutes after
[7] = system: uptake of norepinephrine by synaptosomes isolated from the hypothalamus; test: In vitro uptake of [3H]norepinephrine by rat hypothalamus synaptosomes (method of Wong and Bymaster); type: biochemical, male Sprague-Dawley rats; settings: for Uptake: [3H]norepinephrine uptake
Description: as §1
Uptake of [^3H]monoamines by synaptosomes was determined as follows. A portion of a synaptosome preparation equivalent to 1 mg. of protein was incubated at 37°. for 5 minutes in 1 or 3 ml. of Krebs bicarbonate medium containing an additional 10mM of glucose, 0.1mM iproniazid, ImM ascorbic acid, 0.17mM ethylenediaminetetraacetic acid and [3H]monoamine at a specified concentration. The incubation mixtures were immediately diluted with 2 ml. of ice-chilled Krebs bicarbonate buffer containing 1mM non-radioactive monoamine. Synaptosomes were harvested by centrifugation, and rinsed with 5 ml. of cold buffer into counting vials containing 10 ml. of scintillation fluid. Radioactivity was measured with a liquid scintillation spectrometer, and the amount of [^3H]- monoamine accumulated by the synaptosomes at 4° represented the background count and was subtracted from the results obtained on all samples.

[8] = Oral absorption (statement only); settings: in vivo
[9] = system: serotonin uptake, synaptosomes of cerebral cortex; test: In vitro uptake of [3H]serotonin by cerebral cortex synaptosomes; type: biochemical, male Sprague-Dawley rats
Description: as §1, §2, §3

mice [10] = test: Acute toxicity in mice; settings: injected in mice
mice [11] = settings: mouse, in vivo
[12] = 4 h, four hours after administration, read-out: inhibition of norepinephrine uptake
[13] = inhibition of norepinephrine uptake, intraperitoneally, 1 hour before sacrifice
[14] = duration experiment up to 4 hours, read-out: maximum inhibition of norepinephrine uptake

CNCCC(Oc1ccccc1C)c1ccccc1.Cl (racemic) [racemate, N-methyl-3-(2-methylphenoxy)-3-phenylpropylamine, hydrochloride, reference compound]
ED50 [1]: 3.4 mg/kg
negative logarithm of the dissociation constant [2]: 5.72

CNCCC(Oc1ccccc1C)c1ccccc1.Cl (single isomer, unassigned; (-)) [compound of this invention, (-)-N-methyl-3-(2-methylphenoxy)-3-phenylpropylamine, hydrochloride]
uptake of [3H]-norepinephrine reduced from the control value ([1]; 1 mg./kg. intraperitoneally, 1 hour before sacrifice): 35%
uptake of [3H]-norepinephrine reduced from the control value ([1]; 3 mg./kg. intraperitoneally, 1 hour before sacrifice): 58%
uptake of [3H]-norepinephrine reduced from the control value ([1]; 10 mg./kg. intraperitoneally, 1 hour before sacrifice): 68%
inhibition at 10 mg/kg [1, 12]: ~65%
ED50 [1, 13]: 2.1 mg/kg
inhibition at 10 mg/kg [1, 14]: > 80%
ED50 concentration in blood plasma ([1]; blood level plotted against rate of [3H]norepinephrine uptake): about 14 x 10^-9 g./ml.
concentration that suppressed the rate of rise and duration of the action potential [3]: 8 µM
IC50 [4]: 4000 nM
inhibition at 1 mg/kg ([5]; 1 mg./kg. intraperitoneally before 6-hydroxydopamine, read-out: reduced the inhibition of uptake (by 6-hydroxydopamine)): 15%
inhibition at 3 mg/kg ([5]; 3 mg./kg. intraperitoneally before 6-hydroxydopamine, read-out: reduced the inhibition of uptake (by 6-hydroxydopamine)): 43%
inhibition at 6 mg/kg ([5]; 6 mg./kg. intraperitoneally before 6-hydroxydopamine, read-out: reduced the inhibition of uptake (by 6-hydroxydopamine)): 70%
ED50 [5]: 4 mg/kg
dose giving 50% antagonism of the hypothermia [6]: 0.16 mg/kg
highest antagonism ([6]; compound orally at 1 mg./kg., apomorphine intraperitoneally): 35%
Uptake ([7]; concentration 1 x 10^-9M, control without drug 3.9 x 10^-12 moles/mg. protein): 3.1 x 10^-12moles/mg. protein
Uptake ([7]; concentration 2 x 10^-9M, control 3.9): 2.2 x 10^-12moles/mg. protein
Uptake ([7]; concentration 3 x 10^-9M, control 3.9): 3.1 x 10^-12moles/mg. protein
Uptake ([7]; concentration 10 x 10^-9M, control 3.9): 1.4 x 10^-12moles/mg. protein
Uptake ([7]; concentration 30 x 10^-9M, control 3.9): 1.0 x 10^-12moles/mg. protein
Uptake ([7]; concentration 50 x 10^-9M, control 3.9): 0.9 x 10^-12moles/mg. protein
Uptake ([7]; concentration 100 x 10^-9M, control 3.9): 0.8 x 10^-12moles/mg. protein
potency in inhibiting the uptake of norepinephrine relative to the (+)-enantiomer ([7]; compared with the corresponding (+)-enantiomer): about 10 times
anticholinergic activity relative to the (+)-enantiomer ([2]; fraction of the activity of the (+)-enantiomer): 1/6
anticholinergic activity relative to the racemate ([2]; fraction of the activity of the racemate): 1/3
oral absorption [8]: orally absorbed
IC50 [9]: 1000 nM
doses at which no deaths occurred (mice [10]): below 90 mg./kg.

CNCC[C@H](Oc1ccccc1C)c1ccccc1 [(+)-enantiomer, reference compound]
inhibition at 10 mg/kg [1, 12]: 35%
ED50 [1, 13]: 6.3 mg/kg
inhibition at 10 mg/kg [1, 14]: 70%
inhibition at 10 mg/kg ([1]; second hour after administration, read-out: inhibition of norepinephrine uptake): 50%
ED50 [5]: ~22 mg/kg
dose giving 50% antagonism of the hypothermia [6]: 2.26 mg/kg
antagonism ([6]; compound orally at 3 mg./kg., apomorphine intraperitoneally): 50%
time after administration at which mice were still stimulated (mice [11]): ≥ 5 h
IC50 ([7]; norepinephrine uptake, hypothalamus synaptosomes, read-out: IC50 value, concentration which inhibited half of the uptake activity): 40 nM
negative logarithm of the dissociation constant [2]: 6.04
doses at which no deaths occurred (mice [10]): below 90 mg./kg.
